Test results taken from ChEMBL document CHEMBL5316338, “Discovery of Novel PTP1B Inhibitors with Once-Weekly Therapeutic Potential for Type 2 Diabetes: Design, Synthesis, and In Vitro and In Vivo Investigations of BimBH3 Peptide Analogues” (J Med Chem, 2023).
The source made the active and inactive calls. No cut-off for these calls is given here. Square brackets hold non-standard residues; d marks the D form. Peptide text beside a SMILES is read from it. * marks the point of attachment. ξ: configuration not given here. C18 diacid = O=C(O)CCCCCCCCCCCCCCCCC(=O)*; Myristoyl = CCCCCCCCCCCCCC(=O)*; ξR = N=C(N)NCCCC(N)C(=O)O

Key:
[1] = target: T1, Tyrosine-protein phosphatase non-receptor type 2 (Homo sapiens) (UniProt P17706); test: Inhibition of recombinant human TC-PTP (1 to 314 residues) expressed in baculovirus infected insect cells using pNPP as substrate assessed as substrate hydrolysis at 50 umol/L relative to control; settings: Insect cell, dose 50.0 µmol/L
T1 sequence (whole entry): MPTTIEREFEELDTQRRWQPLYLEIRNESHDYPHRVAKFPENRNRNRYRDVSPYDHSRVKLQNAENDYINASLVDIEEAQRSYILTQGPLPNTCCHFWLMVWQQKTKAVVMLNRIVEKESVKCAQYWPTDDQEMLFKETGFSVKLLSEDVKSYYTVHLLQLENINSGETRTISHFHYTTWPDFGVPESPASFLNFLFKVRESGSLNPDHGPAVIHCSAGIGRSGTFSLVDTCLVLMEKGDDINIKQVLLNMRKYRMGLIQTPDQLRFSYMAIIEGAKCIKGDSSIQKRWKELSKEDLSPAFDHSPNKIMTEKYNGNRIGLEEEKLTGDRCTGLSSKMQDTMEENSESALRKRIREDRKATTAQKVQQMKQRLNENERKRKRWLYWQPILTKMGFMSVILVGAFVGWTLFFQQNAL

Proteinase K = test: Stability of compound assessed as Proteinase K (unknown origin) mediated compound degradation by measuring half-life by HPLC analysis; assay type: ADME
chymotrypsin = chymotrypsin (Homo sapiens, UniProt P17538+P40313+Q6GPI1+Q99895); test: Stability of compound assessed as chymotrypsin (unknown origin) mediated compound degradation by measuring half-life by RP-HPLC analysis; assay type: ADME, protein assay
Mus musculus [2] = test: Antidiabetic activity against C57BL/Ks db/db mouse assessed as reduction in fasting blood glucose level at 1 uM/kg, sc administered once every 2 days for 2 weeks by glucometer analysis; assay type: functional, organism-based
Mus musculus [3] = test: Antidiabetic activity against C57BL/Ks db/db mouse assessed as reduction in fasting blood glucose level at 1 uM/kg, sc administered once a week for 2 weeks by glucometer analysis; assay type: functional, organism-based
Mus musculus [4] = test: Antidiabetic activity against C57BL/Ks db/db mouse assessed as redcution in fasting blood glucose level at 1 umol/kg, sc administered once a week and measured on day 15 by glucometer analysis (reference value: 27.3 +/- 2.4 […]); assay type: functional; settings: dose 1 µmol/kg, time 15 day
Mus musculus [5] = test: Antidiabetic activity against C57BL/Ks db/db mouse assessed as redcution in fasting blood glucose level at 1 umol/kg, sc administered once a week and measured on day 22 by glucometer analysis (reference value: 27.4 +/- 1.8 […]); assay type: functional; settings: dose 1 µmol/kg, time 22 day
Mus musculus [6] = test: Antidiabetic activity against C57BL/Ks db/db mouse assessed as redcution in fasting blood glucose level at 1 umol/kg, sc administered once a week and measured on day 26 by glucometer analysis (reference value: 31.4 +/- 2.2 […]); assay type: functional; settings: dose 1 µmol/kg, time 26 day
Mus musculus [7] = test: Antidiabetic activity against over-night fasted C57BL/ks db/db mouse assessed as suppression of increased blood glucose concentration at 1 uM/kg, sc pretreated with compound for 4 weeks followed by insulin stimulation and measured for 90 mins by insulin tolerance test; assay type: functional, organism-based; settings: time 40410.0 min
Mus musculus [8] = test: Antidiabetic activity against sc dosed C57BL/Ks db/db mouse assessed as reduction in C-peptide level at 1 umol/kg by ELISA analysis; assay type: functional, organism-based; settings: dose 1.0 µmol/kg
Mus musculus [9] = test: Antidiabetic activity against C57BL/Ks db/db mouse assessed as reduction in fasting blood glucose level at 1 uM/kg, sc administered once daily and measured on day 8 by glucometer analysis; assay type: functional, organism-based; settings: time 8.0 day
Mus musculus [10] = test: Antidiabetic activity against C57BL/Ks db/db mouse assessed as reduction in fasting blood glucose level at 1 uM/kg, sc administered once every 3 days for 2 weeks by glucometer analysis; assay type: functional, organism-based

| inhibition [1] | half-life (Proteinase K) | half-life (chymotrypsin) | SMILES | Activity (Mus musculus [2]) | Activity (Mus musculus [3]) | Fasting blood glucose (Mus musculus [4]) | Fasting blood glucose level (Mus musculus [5]) | Fasting blood glucose level (Mus musculus [6]) | Activity (Mus musculus [7]) | Activity (Mus musculus [8]) | Activity (Mus musculus [9]) | Activity (Mus musculus [10]) |
| --- | --- | --- | --- | --- | --- | --- | --- | --- | --- | --- | --- | --- |
| < 50% | 17.4 min | 178 min | CCCCCCCCCCCCCC(=O)N[C@H](C(=O)N[C@@H](C)C(=O)N[C@@H](CCC(N)=O)C(=O)N[C@@H](CCC(=O)O)C(=O)N[C@@H](CC(C)C)C(=O)N[C@@H](CCCNC(=N)N)C(=O)NC(CCCNC(=N)N)C(=O)N[C@H](C(=O)NCC(=O)N[C@@H](CC(=O)O)C(=O)N[C@@H](CCC(=O)O)C(=O)N[C@@H](Cc1ccccc1)C(=O)O)[C@@H](C)CC)[C@@H](C)CC (some centres not stated) (Myristoyl-IAQELR[ξR]IGDEF-OH) | Active | Active | 8.3 mmol/L | 11.2 mmol/L | 12.9 mmol/L | Active | Active |  |  |
| < 50% | 7.8 min | 12 min | CC[C@H](C)[C@H](NC(=O)CCCCCCCCCCCCCCCCC(=O)O)C(=O)N[C@@H](C)C(=O)N[C@@H](CCC(N)=O)C(=O)N[C@@H](CCC(=O)O)C(=O)N[C@@H](CC(C)C)C(=O)N[C@@H](CCCNC(=N)N)C(=O)NC(CCCNC(=N)N)C(=O)N[C@H](C(=O)NCC(=O)N[C@@H](CC(=O)O)C(=O)N[C@@H](CCC(=O)O)C(=O)N[C@@H](Cc1ccccc1)C(=O)O)[C@@H](C)CC (some centres not stated) ({C18 diacid}-IAQELR[ξR]IGDEF-OH) | Active | Active | 8.7 mmol/L | 9.9 mmol/L | 22.9 mmol/L | Active | Active | Active | Active |
